Assay type in all cases: biochemical
The target in one test is CDK2/CCNE1 (Homo sapiens, UniProt P24941). Put plainly: CDK2 homogeneous time-resolved fluorescence (HTRF) kinase assay. Particulars: CDK2/CCNE. In short, it runs like this:
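TR-FRET read-out (665 nm, or 665/615 ratio) of Eu-antibody detection of phospho-4E-BP1 (Thr37/46) ULight peptide. Enzyme 3 nM, ATP 1 mM, peptide 50 nM, 1% DMSO; 60 min reaction at 23 °C after 20 min compound preincubation. IC50 from 11-point half-log titrations, top typically 10 μM.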
(In general: Time-resolved FRET reads energy transfer from a long-lived donor to a nearby acceptor.)

In the next test the target is CDK6/CCND1 (Homo sapiens, UniProt Q00534). Description: CDK6 homogeneous time-resolved fluorescence (HTRF) kinase assay. Conditions: CDK6/CCND, 1 mM ATP. In short, it runs like this:
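Assay conditions: HEPES buffer containing 10 mM MgCl2, 1 mM EGTA, 2 mM DTT, 0.01% Tween 20; 1 nM CDK6/CCND1, 50 nM peptide substrate, 1 mM ATP. Detection after 60 min reaction used 2 nM europium antibody with 340 nm excitation. Potency fitted from half-log series, 11 points.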

The target of another test is CDK4/CCND3 (Homo sapiens, UniProt P11802). Description: CDK4 homogeneous time-resolved fluorescence (HTRF) kinase assay. Conditions: CDK4/CCND. In short, it runs like this:
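TR-FRET read (665 nm, or 665/615 ratio) of 4E-BP1 Thr37/46 phosphorylation by 1.5 nM CDK4/CCND3 at 1 mM ATP, 50 nM ULight peptide, 1% DMSO. Reaction ran 60 min at 23 °C after 20 min compound–enzyme preincubation. IC50 from 11-point half-log dilutions, top 10 μM.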

The target in another test is CDK1/CCNB1 (Homo sapiens, UniProt P06493). Put plainly: CDK1 homogeneous time-resolved fluorescence (HTRF) kinase assay. Particulars: CDK1/CCNB. The procedure, abridged: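 Read-out: TR-FRET (Eu anti-phospho-4E-BP1 Thr37/46 antibody, 2 nM; 665 nm or 665/615 ratio) after 60 min phosphorylation of 50 nM ULight-peptide by 0.5 nM CDK1/CCNB1 at 1 mM ATP, 23 °C. Compound preincubated 20 min with enzyme; 1% DMSO.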

[1] abbreviates: <25 nM, read-out: CDK2/CCNE IC50, <25 nM.
Setting [2] is: >250 nM, read-out: CDK6/CCND IC50, >250 nM.
[3] abbreviates: >250 nM, read-out: CDK4/CCND IC50, >250 nM.
Setting [4] is: >250 nM, read-out: CDK1/CCNB IC50 >250 nM.
[5] abbreviates: 25-250 nM, read-out: CDK2/CCNE IC50, 25-250 nM.
Where [6] appears, read: 25-250 nM, read-out: CDK6/CCND IC50, 25-250 nM.
The mark [7] stands for this setting: 25-250 nM, read-out: CDK4/CCND IC50, 25-250 nM.
Where [8] appears, read: 25-250 nM, read-out: CDK1/CCNB IC50, 25-250 nM.

Like-named read-outs stand apart in the source and are kept apart here.

Chain of CDK4/CCND3 (P11802 whole entry): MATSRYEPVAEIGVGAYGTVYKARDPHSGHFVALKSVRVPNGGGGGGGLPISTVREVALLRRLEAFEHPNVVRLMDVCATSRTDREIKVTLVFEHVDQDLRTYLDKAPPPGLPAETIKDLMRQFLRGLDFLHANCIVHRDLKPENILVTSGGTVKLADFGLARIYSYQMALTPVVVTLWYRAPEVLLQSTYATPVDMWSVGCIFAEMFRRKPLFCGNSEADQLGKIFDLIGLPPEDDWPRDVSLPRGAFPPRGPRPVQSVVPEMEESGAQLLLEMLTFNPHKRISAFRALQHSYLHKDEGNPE
Chain of CDK4/CCND3 (P30281 whole entry partner): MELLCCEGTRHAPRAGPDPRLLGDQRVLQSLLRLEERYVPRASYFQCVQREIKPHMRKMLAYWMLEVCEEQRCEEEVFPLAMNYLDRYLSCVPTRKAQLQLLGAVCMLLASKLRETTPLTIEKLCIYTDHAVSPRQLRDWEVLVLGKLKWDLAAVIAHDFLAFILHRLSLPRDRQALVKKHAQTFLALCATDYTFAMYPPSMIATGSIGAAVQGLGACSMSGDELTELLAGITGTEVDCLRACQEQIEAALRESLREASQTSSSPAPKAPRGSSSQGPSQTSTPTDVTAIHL
Chain of CDK6/CCND1 (Q00534 whole entry): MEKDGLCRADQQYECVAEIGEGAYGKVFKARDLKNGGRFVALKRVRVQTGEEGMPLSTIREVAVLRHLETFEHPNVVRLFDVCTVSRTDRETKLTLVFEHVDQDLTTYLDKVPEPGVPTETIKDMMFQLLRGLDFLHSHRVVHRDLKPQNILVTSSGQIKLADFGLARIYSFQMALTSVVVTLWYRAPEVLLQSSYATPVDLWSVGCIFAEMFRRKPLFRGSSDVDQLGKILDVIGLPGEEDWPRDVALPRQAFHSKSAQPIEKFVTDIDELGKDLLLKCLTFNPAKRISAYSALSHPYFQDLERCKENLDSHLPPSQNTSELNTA
Chain of CDK6/CCND1 (P24385 whole entry partner): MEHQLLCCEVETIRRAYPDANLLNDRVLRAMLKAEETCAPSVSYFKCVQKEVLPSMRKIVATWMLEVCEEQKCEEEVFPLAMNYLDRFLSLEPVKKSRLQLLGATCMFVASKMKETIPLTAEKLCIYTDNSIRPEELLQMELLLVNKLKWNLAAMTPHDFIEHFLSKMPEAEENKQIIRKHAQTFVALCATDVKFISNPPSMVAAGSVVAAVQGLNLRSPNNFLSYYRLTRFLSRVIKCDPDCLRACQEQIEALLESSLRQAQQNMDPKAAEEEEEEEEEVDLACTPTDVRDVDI
Chain of CDK1/CCNB1 (P06493 whole entry): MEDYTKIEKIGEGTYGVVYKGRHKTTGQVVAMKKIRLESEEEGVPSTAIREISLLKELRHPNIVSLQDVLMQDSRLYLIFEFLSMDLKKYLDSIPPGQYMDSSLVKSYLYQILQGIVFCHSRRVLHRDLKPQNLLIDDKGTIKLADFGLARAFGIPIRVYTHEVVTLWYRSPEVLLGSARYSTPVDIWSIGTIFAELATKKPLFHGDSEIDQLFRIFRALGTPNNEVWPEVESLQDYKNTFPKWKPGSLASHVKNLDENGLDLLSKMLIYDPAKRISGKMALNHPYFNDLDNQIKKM
Chain of CDK1/CCNB1 (P14635 whole entry partner): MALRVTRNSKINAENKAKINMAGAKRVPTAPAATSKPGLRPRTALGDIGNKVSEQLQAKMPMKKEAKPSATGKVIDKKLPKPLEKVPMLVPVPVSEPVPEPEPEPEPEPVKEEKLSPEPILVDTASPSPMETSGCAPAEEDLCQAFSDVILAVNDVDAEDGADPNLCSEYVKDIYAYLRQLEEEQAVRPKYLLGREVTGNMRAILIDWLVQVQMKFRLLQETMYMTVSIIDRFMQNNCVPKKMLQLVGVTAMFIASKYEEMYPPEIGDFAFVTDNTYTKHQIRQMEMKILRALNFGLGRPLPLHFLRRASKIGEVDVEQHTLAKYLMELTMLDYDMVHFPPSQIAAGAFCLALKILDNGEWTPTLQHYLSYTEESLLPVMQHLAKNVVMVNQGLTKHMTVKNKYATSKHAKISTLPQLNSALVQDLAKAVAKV

Take `Cc1c(-c2nccc3cnc(Nc4ccc(S(=O)(=O)Nc5nccc(N6CCN(CCO)CC6)n5)cc4)cc23)ccc2c1cnn2CC(O)(C(F)(F)F)C(F)(F)F` [Ex 755, N-(4-(4-(2-hydroxyethyl)piperazin-1-yl)pyrimidin-2-yl)-4-((5-(4-methyl-1-(3,3,3-trifluoro-2-hydroxy-2-(trifluoromethyl)propyl)-1H-indazol-5-yl)-2,6-naphthyridin-3-yl)amino)benzenesulfonamide]: the IC50 was less than 25 nM on CDK2/CCNE1 (setting [1]), greater than 250 nM on CDK6/CCND1 (setting [2]), greater than 250 nM at CDK4/CCND3 (setting [3]) and greater than 250 nM at CDK1/CCNB1 (setting [4]).

On to `Cc1c(-c2nccc3cnc(Nc4ccc(S(=O)(=O)Nc5nccc(N6CCN(C)CC6)n5)cc4)cc23)ccc2c1cnn2CC(O)(C(F)(F)F)C(F)(F)F` [Ex 756, 4-((5-(4-methyl-1-(3,3,3-trifluoro-2-hydroxy-2-(trifluoromethyl)propyl)-1H-indazol-5-yl)-2,6-naphthyridin-3-yl)amino)-N-(4-(4-methylpiperazin-1-yl)pyrimidin-2-yl)benzenesulfonamide], for which the IC50 at CDK2/CCNE1 (setting [1]) is less than 25 nM; at CDK6/CCND1 (setting [2]), greater than 250 nM; on CDK4/CCND3 (setting [3]), greater than 250 nM; at CDK1/CCNB1 (setting [4]), greater than 250 nM.

`Cc1c(-c2ncc(F)c3cnc(Nc4ccc(S(C)(=O)=O)cc4)cc23)ccc2c1cnn2CC(O)(C(F)(F)F)C(F)(F)F` [Ex 757, 1,1,1,3,3,3-hexafluoro-2-((5-(4-fluoro-7-((4-(methylsulfonyl)phenyl)amino)-2,6-naphthyridin-1-yl)-4-methyl-1H-indazol-1-yl)methyl)propan-2-ol]: the IC50 is 25 to 250 nM on CDK2/CCNE1 (setting [5]), greater than 250 nM on CDK6/CCND1 (setting [2]), greater than 250 nM at CDK4/CCND3 (setting [3]) and greater than 250 nM on CDK1/CCNB1 (setting [4]).

With `Cc1c(-c2nccc3cnc(Nc4ccc(S(=O)(=O)NC5CCCCC5)cc4)cc23)ccc2c1cnn2CC(C)(C)O` [Ex 758, N-cyclohexyl-4-((5-(1-(2-hydroxy-2-methylpropyl)-4-methyl-1H-indazol-5-yl)-2,6-naphthyridin-3-yl)amino)benzenesulfonamide], the IC50 is 25 to 250 nM on CDK2/CCNE1 (setting [5]), greater than 250 nM on CDK6/CCND1 (setting [2]), greater than 250 nM on CDK4/CCND3 (setting [3]) and greater than 250 nM on CDK1/CCNB1 (setting [4]).

Take `Cc1ccnc(NS(=O)(=O)c2ccc(Nc3cc4c(-c5ccc6c(cnn6CC(O)(C(F)(F)F)C(F)(F)F)c5C)nccc4cn3)cc2)n1` [Ex 759, 4-((5-(4-methyl-1-(3,3,3-trifluoro-2-hydroxy-2-(trifluoromethyl)propyl)-1H-indazol-5-yl)-2,6-naphthyridin-3-yl)amino)-N-(4-methylpyrimidin-2-yl)benzenesulfonamide]: the IC50 at CDK2/CCNE1 (setting [1]) is less than 25 nM; on CDK6/CCND1 (setting [2]), greater than 250 nM; on CDK4/CCND3 (setting [3]) it was greater than 250 nM; at CDK1/CCNB1 (setting [4]), greater than 250 nM.

Take `Cc1c(-c2nccc3cnc(Nc4ccc(S(=O)(=O)NC5CCN(CCO)CC5)cc4)cc23)ccc2c1cnn2CC(C)(C)O` [Ex 762, 4-((5-(1-(2-hydroxy-2-methylpropyl)-4-methyl-1H-indazol-5-yl)-2,6-naphthyridin-3-yl)amino)-N-(1-(2-hydroxyethyl)piperidin-4-yl)benzenesulfonamide]: the IC50 was less than 25 nM on CDK2/CCNE1 (setting [1]), 25 to 250 nM on CDK6/CCND1 (setting [6]), 25 to 250 nM at CDK4/CCND3 (setting [7]) and 25 to 250 nM on CDK1/CCNB1 (setting [8]).

On to `Cc1c(-c2nccc3cnc(Nc4ccc(S(=O)(=O)NC5CCN(C)CC5)cc4)cc23)ccc2c1cnn2CC(C)(C)O` [Ex 763, 4-((5-(1-(2-hydroxy-2-methylpropyl)-4-methyl-1H-indazol-5-yl)-2,6-naphthyridin-3-yl)amino)-N-(1-methylpiperidin-4-yl)benzenesulfonamide], for which the IC50 on CDK2/CCNE1 (setting [1]) was less than 25 nM; on CDK6/CCND1 (setting [6]) it was 25 to 250 nM; on CDK4/CCND3 (setting [7]) it was 25 to 250 nM; at CDK1/CCNB1 (setting [8]), 25 to 250 nM.

With `Cc1c(-c2nccc3cnc(Nc4ccc(S(=O)(=O)NC5CCNCC5)cc4)cc23)ccc2c1cnn2CC(C)(C)O` [Ex 764, 4-((5-(1-(2-hydroxy-2-methylpropyl)-4-methyl-1H-indazol-5-yl)-2,6-naphthyridin-3-yl)amino)-N-(piperidin-4-yl)benzenesulfonamide], the IC50 on CDK2/CCNE1 (setting [1]) was less than 25 nM; at CDK6/CCND1 (setting [6]), 25 to 250 nM; at CDK4/CCND3 (setting [7]) it was 25 to 250 nM; on CDK1/CCNB1 (setting [4]), greater than 250 nM.

Regarding `COc1nc(S(C)(=O)=O)ccc1Nc1cc2c(-c3ccc4c(cnn4CC(C)(C)O)c3C)nccc2cn1` [Ex 766, 1-(5-(7-((2-methoxy-6-(methylsulfonyl)pyridin-3-yl)amino)-2,6-naphthyridin-1-yl)-4-methyl-1H-indazol-1-yl)-2-methylpropan-2-ol], the IC50 was 25 to 250 nM on CDK2/CCNE1 (setting [5]), greater than 250 nM at CDK6/CCND1 (setting [2]), greater than 250 nM on CDK4/CCND3 (setting [3]) and greater than 250 nM on CDK1/CCNB1 (setting [4]).

For `Cc1c(-c2nccc3cnc(Nc4ccc(NS(=O)(=O)c5ccc(N6CCNCC6)cc5)cc4)cc23)ccc2c1cnn2CC(C)(C)O` [Ex 767, N-(4-((5-(1-(2-hydroxy-2-methylpropyl)-4-methyl-1H-indazol-5-yl)-2,6-naphthyridin-3-yl)amino)phenyl)-4-(piperazin-1-yl)benzenesulfonamide], the IC50 at CDK2/CCNE1 (setting [1]) was less than 25 nM; on CDK6/CCND1 (setting [2]), greater than 250 nM; on CDK4/CCND3 (setting [3]), greater than 250 nM; at CDK1/CCNB1 (setting [4]), greater than 250 nM.

`Cc1c(-c2nccc3cnc(Nc4ccc(NS(=O)(=O)c5ccccn5)cc4)cc23)ccc2c1cnn2CC(C)(C)O` [Ex 768, N-(4-((5-(1-(2-hydroxy-2-methylpropyl)-4-methyl-1H-indazol-5-yl)-2,6-naphthyridin-3-yl)amino)phenyl)pyridine-2-sulfonamide]: the IC50 is less than 25 nM on CDK2/CCNE1 (setting [1]), 25 to 250 nM on CDK6/CCND1 (setting [6]), 25 to 250 nM on CDK4/CCND3 (setting [7]) and 25 to 250 nM on CDK1/CCNB1 (setting [8]).

`Cc1c(-c2nccc3cnc(Nc4ccc(S(=O)(=O)Nc5nccc(N6CCOCC6)n5)cc4)cc23)ccc2c1cnn2CC(O)(C(F)(F)F)C(F)(F)F` [Ex 769, 4-((5-(4-methyl-1-(3,3,3-trifluoro-2-hydroxy-2-(trifluoromethyl)propyl)-1H-indazol-5-yl)-2,6-naphthyridin-3-yl)amino)-N-(4-morpholinopyrimidin-2-yl)benzenesulfonamide]: the IC50 is less than 25 nM at CDK2/CCNE1 (setting [1]), greater than 250 nM on CDK6/CCND1 (setting [2]), greater than 250 nM at CDK4/CCND3 (setting [3]) and greater than 250 nM at CDK1/CCNB1 (setting [4]).

On to `Cc1c(-c2nccc3cnc(Nc4ccc(S(=O)(=O)Nc5cc(N6CCOCC6)ccn5)cc4)cc23)ccc2c1cnn2CC(C)(C)O` [Ex 772, 4-((5-(1-(2-hydroxy-2-methylpropyl)-4-methyl-1H-indazol-5-yl)-2,6-naphthyridin-3-yl)amino)-N-(4-morpholinopyridin-2-yl)benzenesulfonamide], for which the IC50 at CDK2/CCNE1 (setting [1]) was less than 25 nM; at CDK6/CCND1 (setting [6]), 25 to 250 nM; on CDK4/CCND3 (setting [7]) it was 25 to 250 nM; at CDK1/CCNB1 (setting [4]) it was greater than 250 nM.

For `Cc1c(-c2nccc3cnc(Nc4ccc(S(=O)(=O)Nc5ccc(N6CCOCC6)cn5)cc4)cc23)ccc2c1cnn2CC(C)(C)O` [Ex 773, 4-((5-(1-(2-hydroxy-2-methylpropyl)-4-methyl-1H-indazol-5-yl)-2,6-naphthyridin-3-yl)amino)-N-(5-morpholinopyridin-2-yl)benzenesulfonamide], the IC50 is less than 25 nM on CDK2/CCNE1 (setting [1]), 25 to 250 nM at CDK6/CCND1 (setting [6]), 25 to 250 nM at CDK4/CCND3 (setting [7]) and greater than 250 nM on CDK1/CCNB1 (setting [4]).

Values taken from patent US20260325533A1, “CDK INHIBITOR COMPOUNDS” (ALEKSIA THERAPEUTICS, INC., priority 2023, published 2026).
